Experimental data reported in patent US11078216B2, “Bisaryl amides as NRF2 activators” (GLAXOSMITHKLINE INTELLECTUAL PROPERTY DEVELOPMENT LIMITED, priority 2016, dated 2021).

Test system: NRF2 (NQO1 activity as marker for NRF2 activation), BEAS-2B cells
Assay: BEAS-2B NQO1 MTT Assay
Format: cell-based
Settings: Homo sapiens, EC50 of NQO1 specific activity induction, 48 hours incubation, read-out: EC50
Summary of the method: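 BEAS-2B cells were exposed to compound for 48 h at 37° C, 5% CO2, then lysed. NQO1 activity was measured kinetically by MTT reduction at 570 nm over 30 minutes; EC50 came from 3-parameter fit of Delta OD/min versus log concentration.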

CC[C@@H]1CN(Cc2cc([C@@H](c3ccc4c(nnn4CC)c3C)C(C)(C)C(=O)Nc3cnc(NC(CO)CO)nc3)ccc2C)S(=O)(=O)c2cccnc2O1 [Example 128, (S)-N-(2-((1,3-Dihydroxypropan-2-yl)amino)pyrimidin-5-yl)-3-(3-(((R)-4-ethyl-1,1-dioxido-3,4-dihydro-2H-pyrido[2,3-b][1,4,5]oxathiazepin-2-yl)methyl)-4-methylphenyl)-3-(1-ethyl-4-methyl-1H-benzo[d][1,2,3]triazol-5-yl)-2,2-dimethylpropanamide]
EC50: 100 to 1000 nM

CC[C@@H]1CN(Cc2cc([C@@H](c3ccc4c(nnn4CC)c3C)C(C)(C)C(=O)Nc3cnc(OCC(N)CO)nc3)ccc2C)S(=O)(=O)c2cccnc2O1 (stereo partly drawn) [Example 129, (3S)-N-(2-(2-Amino-3-hydroxypropoxy)pyri-midin-5-yl)-3-(3-(((R)-4-ethyl-1,1-dioxido-3,4-dihydro-2H-pyrido[2,3-b][1,4,5]oxathiazepin-2-yl)methyl)-4-methylphenyl)-3-(1-ethyl-4-methyl-1H-benzo[d][1,2,3]triazol-5-yl)-2,2-dimethylpropanamide]
EC50: 100 to 1000 nM

CC[C@@H]1CN(Cc2cc([C@@H](c3ccc4c(nnn4CC)c3C)C(C)(C)C(=O)Nc3cnc(N(C)C)nc3)ccc2C)S(=O)(=O)c2cccnc2O1 [Example 130, (S)-N-(2-(Dimethylamino)pyri-midin-5-yl)-3-(3-(((R)-4-ethyl-1,1-dioxido-3,4-dihydro-2H-pyrido[2,3-b][1,4,5]oxathiazepin-2-yl)methyl)-4-methylphenyl)-3-(1-ethyl-4-methyl-1H-benzo[d][1,2,3]triazol-5-yl)-2,2-dimethylpropanamide]
EC50: 1 to 10 nM

CC[C@@H]1CN(Cc2cc([C@@H](c3ccc4c(nnn4CC)c3C)C(C)(C)C(=O)Nc3cnc(S(C)(=O)=O)nc3)ccc2C)S(=O)(=O)c2cccnc2O1 [Example 131, (S)-3-(3-(((R)-4-Ethyl-1,1-dioxido-3,4-dihydro-2H-pyrido[2,3-b][1,4,5]oxathiazepin-2-yl)methyl)-4-methylphenyl)-3-(1-ethyl-4-methyl-1H-benzo[d][1,2,3]triazol-5-yl)-2,2-dimethyl-N-(2-(methylsulfonyl)pyrimidin-5-yl)propanamide]
EC50: 10 to 100 nM

CC[C@@H]1CN(Cc2cc([C@@H](c3ccc4c(nnn4CC)c3C)C(C)(C)NC(C)=O)ccc2C)S(=O)(=O)c2ccccc2O1 [Example 132, N—((S)-1-(3-(((R)-4-Ethyl-1,1-dioxido-3,4-dihydro-2H-benzo[b][1,4,5]oxathiazepin-2-yl)methyl)-4-methylphenyl)-1-(1-ethyl-4-methyl-1H-benzo[d][1,2,3]triazol-5-yl)-2-methylpropan-2-yl)acetamide]
EC50: 10 to 100 nM

CC[C@@H]1CN(Cc2cc([C@@H](c3ccc4c(nnn4CC)c3C)C(C)(C)NC(=O)CCCNC(C)=O)ccc2C)S(=O)(=O)c2ccccc2O1 [Example 133, 4-Acetamido-N-((S)-1-(3-(((R)-4-ethyl-1,1-dioxido-3,4-dihydro-2H-benzo[b][1,4,5]oxathiazepin-2-yl)methyl)-4-methylphenyl)-1-(1-ethyl-4-methyl-1H-benzo[d][1,2,3]triazol-5-yl)-2-methylpropan-2-yl)butanamide]
EC50: 1000 to 10000 nM

CC[C@@H]1CN(Cc2cc([C@@H](c3ccc4c(nnn4CC)c3C)C(C)(C)NC(=O)C3CCOC3)ccc2C)S(=O)(=O)c2ccccc2O1 (stereo partly drawn) [Example 134, N-((S)-1-(3-(((R)-4-Ethyl-1,1-dioxido-3,4-dihydro-2H-benzo[b][1,4,5]oxathiazepin-2-yl)methyl)-4-methylphenyl)-1-(1-ethyl-4-methyl-1H-benzo[d][1,2,3]triazol-5-yl)-2-methylpropan-2-yl)tetrahydrofuran-3-carboxamide]
EC50: 10 to 100 nM

CC[C@@H]1CN(Cc2cc([C@@H](c3ccc4c(nnn4CC)c3C)C(C)(C)NC(=O)C3CCCOC3)ccc2C)S(=O)(=O)c2ccccc2O1 (stereo partly drawn) [Example 135, N-((S)-1-(3-(((R)-4-Ethyl-1,1-dioxido-3,4-dihydro-2H-benzo[b][1,4,5]oxathiazepin-2-yl)methyl)-4-methylphenyl)-1-(1-ethyl-4-methyl-1H-benzo[d][1,2,3]triazol-5-yl)-2-methylpropan-2-yl)tetrahydro-2H-pyran-3-carboxamide]
EC50: 10 to 100 nM

CC[C@@H]1CN(Cc2cc([C@@H](c3ccc4c(nnn4CC)c3C)C(C)(C)NC(=O)c3ccco3)ccc2C)S(=O)(=O)c2ccccc2O1 [Example 136, N-((S)-1-(3-(((R)-4-Ethyl-1,1-dioxido-3,4-dihydro-2H-benzo[b][1,4,5]oxathiazepin-2-yl)methyl)-4-methylphenyl)-1-(1-ethyl-4-methyl-1H-benzo[d][1,2,3]triazol-5-yl)-2-methylpropan-2-yl)furan-2-carboxamide]
EC50: 100 to 1000 nM

CC[C@@H]1CN(Cc2cc([C@@H](c3ccc4c(nnn4CC)c3C)C(C)(C)NC(=O)c3ccoc3)ccc2C)S(=O)(=O)c2ccccc2O1 [Example 137, N-((S)-1-(3-(((R)-4-Ethyl-1,1-dioxido-3,4-dihydro-2H-benzo[b][1,4,5]oxathiazepin-2-yl)methyl)-4-methylphenyl)-1-(1-ethyl-4-methyl-1H-benzo[d][1,2,3]triazol-5-yl)-2-methylpropan-2-yl)furan-3-carboxamide]
EC50: 10 to 100 nM

CC[C@@H]1CN(Cc2cc([C@@H](c3ccc4c(nnn4CC)c3C)C(C)(C)NC(=O)c3ccns3)ccc2C)S(=O)(=O)c2ccccc2O1 [Example 138, N-((S)-1-(3-(((R)-4-Ethyl-1,1-dioxido-3,4-dihydro-2H-benzo[b][1,4,5]oxathiazepin-2-yl)methyl)-4-methylphenyl)-1-(1-ethyl-4-methyl-1H-benzo[d][1,2,3]triazol-5-yl)-2-methylpropan-2-yl)isothiazole-5-carboxamide]
EC50: 10 to 100 nM

CC[C@@H]1CN(Cc2cc([C@@H](c3ccc4c(nnn4CC)c3C)C(C)(C)NC(=O)c3ccc(=O)n(C)c3)ccc2C)S(=O)(=O)c2ccccc2O1 [Example 139, N-((S)-1-(3-(((R)-4-Ethyl-1,1-dioxido-3,4-dihydro-2H-benzo[b][1,4,5]oxathiazepin-2-yl)methyl)-4-methylphenyl)-1-(1-ethyl-4-methyl-1H-benzo[d][1,2,3]triazol-5-yl)-2-methylpropan-2-yl)-1-methyl-6-oxo-1,6-dihydropyridine-3-carboxamide]
EC50: 10 to 100 nM

CC[C@@H]1CN(Cc2cc([C@@H](c3ccc4c(nnn4CC)c3C)C(C)(C)NC(=O)c3cccn(C)c3=O)ccc2C)S(=O)(=O)c2ccccc2O1 [Example 140, N-((S)-1-(3-(((R)-4-Ethyl-1,1-dioxido-3,4-dihydro-2H-benzo[b][1,4,5]oxathiazepin-2-yl)methyl)-4-methylphenyl)-1-(1-ethyl-4-methyl-1H-benzo[d][1,2,3]triazol-5-yl)-2-methylpropan-2-yl)-1-methyl-2-oxo-1,2-dihydropyridine-3-carboxamide]
EC50: 10 to 100 nM

CC[C@@H]1CN(Cc2cc([C@@H](c3ccc4c(nnn4CC)c3C)C(C)(C)NC(=O)c3ccn(C)c(=O)c3)ccc2C)S(=O)(=O)c2ccccc2O1 [Example 141, N-((S)-1-(3-(((R)-4-Ethyl-1,1-dioxido-3,4-dihydro-2H-benzo[b][1,4,5]oxathiazepin-2-yl)methyl)-4-methylphenyl)-1-(1-ethyl-4-methyl-1H-benzo[d][1,2,3]triazol-5-yl)-2-methylpropan-2-yl)-1-methyl-2-oxo-1,2-dihydropyridine-4-carboxamide]
EC50: 10 to 100 nM

CC[C@@H]1CN(Cc2cc([C@@H](c3ccc4c(nnn4CC)c3C)C(C)(C)NC(=O)CC(=O)O)ccc2C)S(=O)(=O)c2ccccc2O1 [Example 142, 3-(((S)-1-(3-(((R)-4-Ethyl-1,1-dioxido-3,4-dihydro-2H-benzo[b][1,4,5]oxathiazepin-2-yl)methyl)-4-methylphenyl)-1-(1-ethyl-4-methyl-1H-benzo[d][1,2,3]triazol-5-yl)-2-methylpropan-2-yl)amino)-3-oxopropanoic acid]
EC50: 10 to 100 nM

CC[C@@H]1CN(Cc2cc([C@@H](c3ccc4c(nnn4CC)c3C)C(C)(C)NC(=O)CS(C)(=O)=O)ccc2C)S(=O)(=O)c2ccccc2O1 [Example 143, N-((S)-1-(3-(((R)-4-Ethyl-1,1-dioxido-3,4-dihydro-2H-benzo[b][1,4,5]oxathiazepin-2-yl)methyl)-4-methylphenyl)-1-(1-ethyl-4-methyl-1H-benzo[d][1,2,3]triazol-5-yl)-2-methylpropan-2-yl)-2-(methylsulfonyl)acetamide]
EC50: 10 to 100 nM

CC[C@@H]1CN(Cc2cc([C@@H](c3ccc4c(nnn4CC)c3C)C(C)(C)NC(=O)CC#N)ccc2C)S(=O)(=O)c2ccccc2O1 [Example 144, 2-Cyano-N-((S)-1-(3-(((R)-4-ethyl-1,1-dioxido-3,4-dihydro-2H-benzo[b][1,4,5]oxathiazepin-2-yl)methyl)-4-methylphenyl)-1-(1-ethyl-4-methyl-1H-benzo[d][1,2,3]triazol-5-yl)-2-methylpropan-2-yl)acetamide]
EC50: 10 to 100 nM

CC[C@@H]1CN(Cc2cc([C@@H](c3ccc4c(nnn4CC)c3C)C(C)(C)NC(=O)c3cnc(OC)nc3)ccc2C)S(=O)(=O)c2ccccc2O1 [Example 145, N-((S)-1-(3-(((R)-4-Ethyl-1,1-dioxido-3,4-dihydro-2H-benzo[b][1,4,5]oxathiazepin-2-yl)methyl)-4-methylphenyl)-1-(1-ethyl-4-methyl-1H-benzo[d][1,2,3]triazol-5-yl)-2-methylpropan-2-yl)-2-methoxypyrimidine-5-carboxamide]
EC50: 1 to 10 nM

CC[C@@H]1CN(Cc2cc([C@@H](c3ccc4c(nnn4CC)c3C)C(C)(C)NC(=O)c3cncnc3)ccc2C)S(=O)(=O)c2ccccc2O1 [Example 146, N-((S)-1-(3-(((R)-4-Ethyl-1,1-dioxido-3,4-dihydro-2H-benzo[b][1,4,5]oxathiazepin-2-yl)methyl)-4-methylphenyl)-1-(1-ethyl-4-methyl-1H-benzo[d][1,2,3]triazol-5-yl)-2-methylpropan-2-yl)pyrimidine-5-carboxamide]
EC50: 10 to 100 nM
